The nature of data set [1]: Particle diameter by laser diffraction (Malvern Mastersizer). It is filed as physicochemical. As for the experimental part: The “particle diameter” refers to the equivalent spherical diameter as determined by laser light scattering method. Particle diameter of lamotrigine was determined by laser diffraction. We determined the diameter of lamotrigine particles using a Malvern™ Mastersizer laser diffraction instrument. Samples of lamotrigine were suspended in hexane containing a surfactant (0.07% dioctyl sulfosuccinate sodium salt). The suspensions were mixed and then sonicated for 15 seconds to thoroughly disperse the lamotrigine particles. The dispersion was then recirculated in the flow cell of the Malvern Mastersizer for two minutes before particle diameter measurements were taken.

A short description of data set [2]: Specific surface area by gas adsorption, multipoint BET (Coulter SA3100). Conditions: micronized particles; degassing 70° C., 30 minutes; 10 points. The class given is physicochemical. An excerpt: Gas adsorption analysis is a preferred method for determining the surface area of a sample of lamotrigine for purposes of this invention since it provides a direct measurement of surface area. It is therefore considered to be more accurate than other methods such as electron microscopy and laser diffraction that rely upon a model to obtain a value for surface area (e.g. equivalent sphere model).
We measured specific particle surface area by gas adsorption using a Coulter™ SA3100 Series adsorption analyzer. The specific surface area of a sample of lamotrigine particles was calculated by the multipoint Brunauer, Emmet and Teller (BET) method. Brunauer, S., P. H. Emmett, E. Teller, J. Am. Chem. Soc., 1938, 60, 309-319. The calculations of the surface area of lamotrigine particles and its precise weight would yield specific surface area (usually expressed as square meters/gram). […] The volume of the manifold was measured with helium gas using a conventional technique. […] The instrument's software calculated the moles of adsorbed N2 (based upon inputted sample mass, manifold volume and sample tube void volume) for ten equilibrium pressures (Ps). […]
The specific surface area of the lamotrigine particles was measured with a Coulter SA 3100, using the multipoint BET technique. […] For the linearity, 10 points were measured, using high sensitivity.

[3] abbreviates: initial particles before air jet milling.

With `Nc1nnc(-c2cccc(Cl)c2Cl)c(N)n1` [Lamotrigine, 3,5-diamino-6-(2,3-dichlorophenyl)-1,2,4-triazine], in data set [1] (setting [3]), the “particle diameter, 50% of the particles equal to or less than” value is at most 250 μm and the “particle diameter, about 80% of the particles equal to or less than” value is on record as at most 500 μm.

For the molecule `Nc1nnc(-c2cccc(Cl)c2Cl)c(N)n1` [lamotrigine micronized particles, 3,5-diamino-6-(2,3-dichlorophenyl)-1,2,4-triazine], the specific surface area in data set [2] is on record as 3.1-3.3 square meters per gram. Besides, the “diameter of all particles in the plurality” value in data set [1] (after micronization in air jet mill) is on record as “less than 100 μm”.
